# Laboratory results taken from patent publication US9260476B2, “RNA targeting compounds and methods for making and using same” (The Research Foundation for The State University of New York, priority 2007, dated 2016).
# pIC50: −log10 of the molar value.
# Assays:
# r(CUG)^exp-MBNL1 complex = conditions: previously reported (13); cited from earlier work
# [1] = tested on: r(CUG)^exp nuclear foci in HeLa cells transfected with the DM1 mini-gene; assay: Fluorescence in situ hybridization (FISH) and confocal microscopy of nuclear foci; format: cell-based; conditions: 25 μM, 16-24 h
# From the text: Another hallmark of DM1-affected cells is the presence of nuclear foci that consist of r(CUG)^exp-protein complexes (26). Therefore, a fluorescence in situ hybridization assay (FISH) was used to probe if 4K-2-DR9 can decrease the occurrence of nuclear foci. HeLa cells were transfected with the DM1 mini-gene and treated with 4K-2-DR9. The cells were then probed with a 2′-O-methyl oligonucleotide labeled with Cy3 that is complementary to r(CUG)^exp. The cells were then imaged via confocal microscopy (FIG. 12). In the absence of 4K-2-DR9, multiple nuclear foci are observed in each cell, which correspond to r(CUG)^exp-protein complexes (FIG. 12a). […] Since 4K-2-DR9 is labeled with fluorescein, cellular permeability and localization can also be imaged.
# HeLa cells were grown as monolayers in Mat-Tak glass-bottomed, 96-well plates. After the cells reached 90-95% confluency, they were transfected with 200 ng of a plasmid encoding a DM1 mini-gene (21) using Lipfoectamine 2000 per the manufacturer's standard protocol. […]
# Another hallmark of DM1 is the presence of nuclear foci caused by aggregates of r(CUG)^exp and various proteins including MBNL1.(26-31) Thus, it was determined if nH-4 compounds can disrupt formation of nuclear foci. […] Fluorescence in situ hybridization (FISH) was then used to visualize the r(CUG)^exp. […]
smiles,measurement,setting,value
CCCN(CC(=O)N(CCC)CC(=O)N(CCC)CC(=O)N(CCC)CC(=O)N(CC(=O)N(CCC)CC(=O)N(CCC)CC(=O)N(CCC)CC(=O)N(CCC)CC(=O)N(CC(N)=O)Cc1cn(CCCNC(=O)CCCOc2cccc(-c3nc4ccc(-c5nc6ccc(N7CCN(C)CC7)cc6[nH]5)cc4[nH]3)c2)nn1)Cc1cn(CCCNC(=O)CCCOc2cccc(-c3nc4ccc(-c5nc6ccc(N7CCN(C)CC7)cc6[nH]5)cc4[nH]3)c2)nn1)C(=O)CNCc1cn(CCCNC(=O)CCCOc2cccc(-c3nc4ccc(-c5nc6ccc(N7CCN(C)CC7)cc6[nH]5)cc4[nH]3)c2)nn1 [Compound 3H-4],pIC50,r(CUG)^exp-MBNL1 complex,6.39
same,disruption of nuclear foci,[1],the number of foci is decreased and the foci are more diffuse
